Patent US20080241211A1, “DEVICE WHICH ENHANCES THE BIOLOGICAL ACTIVITY OF LOCALLY APPLIED GROWTH FACTORS WITH PARTICULAR EMPHASIS ON THOSE USED FOR BONE REPAIR” (University of Southern California, priority 2007, published 2008)
“Also recorded” adds a separate entry of the source.

Legend:
estrogen receptor = test: Naringin enhancement of BMP-2 effect with estrogen receptor antagonist ICI182,780 in C2C12; format: cell-based; conditions: FIG. 5
Protocol: Intracellular distribution of the estrogen receptor in skeletal myoblasts (C2C12) was determined by immuno-fluorescent staining (Milanesi, L., et al., J Cell Biochem, 2008). Naringin bind to estrogen receptor. Inhibition of estrogen receptor abrogate naringin effect. […] However, the mechanism by which naringin exerts its effects is still unclear. From our prelimianry study, there is evidence that naringin acts via estrogen-receptor (ER)-mediated signaling. Cells were cultured with naringin, in combination with 7α,17β-[9[(4,4,5,5,5-pentafluoropentyl)sulfinyl]nonyl] estra-1,3,5(10)-triene-3,17-diol (ICI182,780), a non-specific ERα and ERβ antagonist.

osteoblasts = conditions: cited from earlier work
MG-63 human osteoblasts = conditions: via activation of the estrogen receptor; cited from earlier work
[1] = tested on: Pre-myoblast cell line C2C12; test: BMP-2 induced ALP activity in C2C12 cell culture; format: cell-based
Protocol: C2C12 was plated in 96-well culture plate with density of 12.5K/well in 10% FBS/DMEM for 5 hours attachment. […] Cells were incubated at 37° C. for another 48 hours. Cell membrane associated ALP activity was tested by standard ALP assay.
C2C12 was plated in 96-well culture plate with density of 12.5K/well in 10% FBS/DMEM for 5 hours attachment. Medium was changed into 1% testing medium. Forty nano-gram of rhBMP-2 in 10 μl was added in every well and 1-1600 nM of naringin was added 10 minutes later.

[2] = tested on: Rat bone marrow derived stem cells; test: MTT cell proliferation assay; format: cell-based; conditions: 48 h, FIG. 6
Excerpt: MTT was used for cell proliferation assay. MTT [3-(4,5-dimethylthiazol-2-yl)-2,5-diphenyltetrazolium bromide] assay is based on the ability of a mitochondrial dehydrogenase enzyme from viable cells to cleave the tetrazolium rings of the pale yellow MTT and form a dark blue formazan crystals which is largely impermeable to cell membranes, thus resulting in its accumulation within healthy cells. Rat bone marrow derived stem cells were selected by pro-plating methods. Cells used in this study were from passages 3-4. 1×10^7 viable cells/mL in culture media containing 10% FCS were dispensed 100 μL per well in 96 well flat bottomed tissue culture plates. Cells were allow to grow with and without naringin and incubated plates in a humidified CO2 incubator at 37° C. for 48 h. 10 μL of MTT solution were added to all wells of 48 h cultured stem cells and incubate for 4 h at 37° C. After washing cells 3 times with PBS, dark blue dye in cells were dissolved with DMSO. After a few minutes at room temperature read plates using a plate reader in dual wavelength measuring system, at 540 nm and a reference wavelength of 630 nm.
Dose dependent of naringin on bone marrow stem cell proliferation was studied. Cell number was assayed by MTT method. […] (see FIG. 6).

[3] = Collagen sponge implants, subcutaneous or intramuscular bone induction in rats; format: in vivo, rat
Protocol: Collagen sponge was either blended with naringin solution or covalently crosslinked naringin to collagen sponges. Different doses of BMP-2 were added to the matrices before implantation. Samples were placed intramuscular in thigh muscle. Ten Fisher 344 rats with 180 g in weight were used in this study. Implants were be retrieved 28 days postoperatively. Explants were dissected free of muscle flaps and cut into halves. One half of each explant was used for alkaline phosphatase assay.
Based on these surprising discoveries, the inventors concluded that specific growth factors are needed in addition to naringin for bone to form (FIG. 3).
It will be recognized by one skilled in the art that osteoinductive enhancers are particularly useful in situations where fracture healing is compromised, such as in older people where biosynthetic abilities may be declining, or in situations where not sufficient bone is available for repair. It will also be understood by one of ordinary skill in the art that the addition of growth factors (natural or synthetic) to the naringin containing preparation is essential for osteoinduction.

[4] = DBM with naringin in abdominal muscle pouches of nude rats, ectopic bone formation; format: in vivo; conditions: optimized dose of naringin
Protocol: Osteoinductive (OI) activity of human DBM obtained from Tissue Bank with particle size of 210-750 micrometers was tested in vitro with cell culture methods (Han, 2003). DBM were grouped according their OI score.
Two doses of naringin were used to treat DBM particles before implantation. In 50 mg of DBM, 50 micro liter of 100 micromolar or […] of naringin/PBS solution was added into DBM before implantation.
Muscle pouches were created in abdominal muscles bilaterally in nude rats (weighing 120-150 g each) at 6 sites by sharp and blunt dissection. Subsequently, fifty milligrams of three groups of DBM, two doses of naringin/PBS and with PBS alone, were packed into pouches and closed with a single absorbable suture. Implants were retrieved 28 days postoperatively. The recti abdomini muscles were excised as single muscle flaps and placed in cold PBS moisturized paper towels for radiography. Explants were dissected free of muscle flaps and cut into halves. One half of each explant were used for alkaline phosphatase assay and the other half were fixed in 10% neutral buffered formalin solution for 24 hours and decalcified with a decalcifying solution (Stephens Scientific, Riverdale, N.J.) for 48 hours. The decalcified explants were paraffin-embedded and sectioned with a […] microtome. […]

## C[C@]12CC[C@@H]3c4ccc(O)cc4C[C@@H](CCCCCCCCC[S+]([O-])CCCC(F)(F)C(F)(F)F)[C@H]3[C@@H]1CC[C@@H]2O (stereo partly drawn) [ICI, 7α,17β-[9[(4,4,5,5,5-pentafluoropentyl)sulfinyl]nonyl] estra-1,3,5(10)-triene-3,17-diol]
Estrogen receptor
  effect of estrogen receptor antagonist on naringin enhancing BMP-2 effect: partially block naringin enhancing BMP-2 effect

## O=c1c(-c2ccc(O)cc2)coc2cc(O)ccc12 [daidzein]
osteoblasts; daidzein 2-50 microM, P<0.05
  increase of viability of osteoblasts: about 1.4 fold
osteoblasts; daidzein 2-100 microM, P<0.05
  increase of alkaline phosphatase activity of osteoblasts: about 1.4 fold
  increase of osteocalcin synthesis of osteoblasts: ~2.0 fold
osteoblasts; osteoblasts
  BMP2 mRNA increase: 5.0 fold
  BMP2 protein increase: 7.0 fold

## O=c1c(O)c(-c2ccc(O)cc2)oc2cc(O)cc(O)c12 [kaempferol]
MG-63 human osteoblasts
  alkaline phosphatase activity in MG-63 human osteoblasts: induced an increase in alkaline phosphatase activity

## C[C@@H]1O[C@@H](O[C@H]2[C@H](Oc3cc(O)c4c(c3)O[C@H](c3ccc(O)cc3)CC4=O)O[C@H](CO)[C@@H](O)[C@@H]2O)[C@H](O)[C@H](O)[C@H]1O [naringin]
[1]; 40 ng rhBMP-2 per well, 1-1600 nM naringin added 10 minutes later, FIG. 4
  naringin concentration with maximal enhancing ALP effect: 800 nM
[1]; BMP-2 plus naringin versus BMP-2 alone, FIG. 3
  increase of BMP-2 activity by naringin: four-fold
[1]; BMP-2 plus naringin, FIG. 3
  BMP-2 activity in the ALP assay when naringin is added: 0.4
[1]; C2C12, preliminary results
  induction of differentiation in osteoprogenitor cells by alkaline phosphatase activity: significant induction of differentiation
[1]; naringin added to BMP-2, C2C12, FIG. 3
  effect of naringin on BMP-2 induced ALP activity: increases the upregulation of alkaline phosphatase activity by BMP-2; also recorded: dose dependently increase BMP-2 induced ALP activity
[1]; naringin alone, no BMP-2, C2C12, 48 hours
  effect of naringin by itself on ALP activity / osteoinductivity: not enough for osteogenic induction; also recorded: no effect on ALP activity; also recorded: no osteoinductivity at all
[2]
  bone marrow stem cell proliferation (MTT): inhibits rat bone marrow cell proliferation
[3]; collagen sponges with naringin plus growth factors (BMP2 and/or BMP7), subcutaneous or intramuscular model
  new bone induction: did induce bone
[3]; naringin alone with collagen carrier, no growth factors, rats
  new bone induction: do not induce new bone; also recorded: not sufficient to induce bone; also recorded: no bone was formed; also recorded: no effect
[4]
  DBM activity in regard of ectopic bone formation potential: significantly increased

## O=c1c(O)c(-c2ccc(O)c(O)c2)oc2cc(O)cc(O)c12 [quercetin]
MG-63 human osteoblasts
  alkaline phosphatase activity in MG-63 human osteoblasts: induced an increase in alkaline phosphatase activity
